molecular target: α-glucosidase; assay: pNPG hydrolysis assay, absorbance at […] nm, pH […]; assay type: biochemical

Q: For `O=C(O[C@@H]1Cc2c(O)cc(O)cc2O[C@@H]1c1cc(O)c(O)c(O)c1)c1cc(O)c(O)c(O)c1` [EGCG], which IC50 is on record?
A: 129 µM

Q: `CCN1C(=O)CC[C@H]1c1c(O)cc(O)c2c1O[C@H](c1cc(O)c(O)c(O)c1)[C@H](OC(=O)c1cc(O)c(O)c(O)c1)C2` [S-EGCG-cThea] was tested. Which IC50 did it give?
A: 162 µM

Q: `CCN1C(=O)CC[C@@H]1c1c(O)cc(O)c2c1O[C@H](c1cc(O)c(O)c(O)c1)[C@H](OC(=O)c1cc(O)c(O)c(O)c1)C2` [R-EGCG-cThea] was tested. Which IC50 did it give?
A: 70.3 µM

Reference: article PMC8658928, “Isolation of N-Ethyl-2-pyrrolidinone-Substituted Flavanols from White Tea Using Centrifugal Countercurrent Chromatography Off-Line ESI-MS Profiling and Semi-Preparative Liquid Chromatography” (Molecules, 2021)
